The source made the active and inactive calls. No rule for the calls is given here.
System: rodent lifetime carcinogenesis bioassay, tumor incidence TD50
Assay: carcinogenic potency in animals, long-term in vivo studies, CPDB compilation (AID 1745844)

SMILES: CN(C)NC(=O)CCC(=O)O
- TD50 (mouse, strain B6C3F1, females, in feed, site: any site (literature study), lesion: several types, types named in the paper, dosed 104 weeks, study length 105 weeks): 56400 mg/kg/day (inactive)
- TD50 (mouse, strain B6C3F1, females, in feed, site: liver, lesion: hepatocellular adenoma + hepatocellular carcinoma + neoplastic nodule, dosed 104 weeks, study length 105 weeks): 6820 mg/kg/day
- TD50 (mouse, strain B6C3F1, females, in feed, site: lung, lesion: alveolar/bronchiolar adenoma + alveolar/bronchiolar carcinoma, dosed 104 weeks, study length 105 weeks): 2920 mg/kg/day
- TD50 (mouse, strain B6C3F1, males, in feed, site: any site (literature study), lesion: several types, types named in the paper, dosed 104 weeks, study length 105 weeks): 1500 mg/kg/day
- TD50 (mouse, strain B6C3F1, males, in feed, site: liver, lesion: hepatocellular adenoma + hepatocellular carcinoma + neoplastic nodule, dosed 104 weeks, study length 105 weeks): 2450 mg/kg/day
- TD50 (mouse, strain B6C3F1, males, in feed, site: liver, lesion: hepatocellular adenoma + hepatocellular carcinoma, dosed 104 weeks, study length 105 weeks): 2450 mg/kg/day
- TD50 (mouse, strain B6C3F1, males, in feed, site: liver, lesion: hepatocellular carcinoma, dosed 104 weeks, study length 105 weeks): 2150 mg/kg/day
- TD50 (mouse, strain B6C3F1, males, in feed, site: lung, lesion: alveolar/bronchiolar adenoma + alveolar/bronchiolar carcinoma, dosed 104 weeks, study length 105 weeks): 3400 mg/kg/day
- TD50 (mouse, strain Swiss albino, females, in drinking water, site: blood vessels, lesion: several types, types named in the paper, dosed 92 weeks, study length 92 weeks): 1240 mg/kg/day
- TD50 (mouse, strain Swiss albino, females, in drinking water, site: lung, lesion: several types, types named in the paper, dosed 92 weeks, study length 92 weeks): 1370 mg/kg/day
- TD50 (mouse, strain Swiss albino, males, in drinking water, site: blood vessels, lesion: several types, types named in the paper, dosed 81 weeks, study length 81 weeks): 880 mg/kg/day
- TD50 (mouse, strain Swiss albino, males, in drinking water, site: kidney, lesion: adenoma, dosed 81 weeks, study length 81 weeks): 10900 mg/kg/day
- TD50 (mouse, strain Swiss albino, males, in drinking water, site: liver, lesion: hepatoma, dosed 81 weeks, study length 81 weeks): 38800 mg/kg/day (inactive)
- TD50 (mouse, strain Swiss albino, males, in drinking water, site: lung, lesion: several types, types named in the paper, dosed 81 weeks, study length 81 weeks): 1110 mg/kg/day
- TD50 (rat, strain Fischer 344, females, in feed, site: any site (literature study), lesion: several types, types named in the paper, dosed 104 weeks, study length 105 weeks): 3450 mg/kg/day
- TD50 (rat, strain Fischer 344, females, in feed, site: liver, lesion: hepatocellular adenoma + hepatocellular carcinoma + neoplastic nodule, dosed 104 weeks, study length 105 weeks): 9640 mg/kg/day
- TD50 (rat, strain Fischer 344, females, in feed, site: lung, lesion: alveolar/bronchiolar adenoma, dosed 104 weeks, study length 105 weeks): 4890 mg/kg/day
- TD50 (rat, strain Fischer 344, females, in feed, site: uterus + uterus, endometrium, lesion: leiomyosarcoma + adenocarcinoma, NOS, dosed 104 weeks, study length 105 weeks): 1840 mg/kg/day
- TD50 (rat, strain Fischer 344, females, in feed, site: uterus, endometrium, lesion: adenocarcinoma, NOS, dosed 104 weeks, study length 105 weeks): 2500 mg/kg/day
- TD50 (rat, strain Fischer 344, females, in feed, site: uterus, lesion: leiomyosarcoma, dosed 104 weeks, study length 105 weeks): 5270 mg/kg/day
- carcinogen call (rat, strain Fischer 344, males, in feed, site: any site (literature study), lesion: several types, types named in the paper, dosed 104 weeks, study length 105 weeks): negative (inactive)

SMILES: c1ccc2sc(SNC3CCCCC3)nc2c1
- carcinogen call (mouse, strain B6AKF1, females, oral dosing, site: any site (literature study), lesion: several types, types named in the paper, dosed 76 weeks, study length 76 weeks): negative (inactive)
- carcinogen call (mouse, strain B6AKF1, females, oral dosing, site: liver, lesion: hepatoma, dosed 76 weeks, study length 76 weeks): negative (inactive)
- carcinogen call (mouse, strain B6AKF1, females, oral dosing, site: lung, lesion: adenoma, dosed 76 weeks, study length 76 weeks): negative (inactive)
- carcinogen call (mouse, strain B6AKF1, males, oral dosing, site: any site (literature study), lesion: several types, types named in the paper, dosed 76 weeks, study length 76 weeks): negative (inactive)
- carcinogen call (mouse, strain B6AKF1, males, oral dosing, site: liver, lesion: hepatoma, dosed 76 weeks, study length 76 weeks): negative (inactive)
- carcinogen call (mouse, strain B6AKF1, males, oral dosing, site: lung, lesion: adenoma, dosed 76 weeks, study length 76 weeks): negative (inactive)
- TD50 (mouse, strain B6C3F1, females, oral dosing, site: any site (literature study), lesion: several types, types named in the paper, dosed 76 weeks, study length 76 weeks): 243 mg/kg/day (inactive)
- carcinogen call (mouse, strain B6C3F1, females, oral dosing, site: liver, lesion: hepatoma, dosed 76 weeks, study length 76 weeks): negative (inactive)
- carcinogen call (mouse, strain B6C3F1, females, oral dosing, site: lung, lesion: several types, types named in the paper, dosed 76 weeks, study length 76 weeks): negative (inactive)
- TD50 (mouse, strain B6C3F1, males, oral dosing, site: any site (literature study), lesion: several types, types named in the paper, dosed 76 weeks, study length 76 weeks): 50.8 mg/kg/day (inactive)
- TD50 (mouse, strain B6C3F1, males, oral dosing, site: liver, lesion: hepatoma, dosed 76 weeks, study length 76 weeks): 92.7 mg/kg/day (inactive)
- TD50 (mouse, strain B6C3F1, males, oral dosing, site: lung, lesion: adenoma, dosed 76 weeks, study length 76 weeks): 532 mg/kg/day (inactive)

SMILES: CN=C(NC#N)NCCSCc1nc[nH]c1C
- TD50 (mouse, strain C57BL/6, females, in drinking water, site: liver, lesion: several types, types named in the paper, dosed 126 weeks, study length 126 weeks): 52200 mg/kg/day (inactive)
- carcinogen call (mouse, strain C57BL/6, females, in drinking water, site: lung, lesion: one or several types, types not named, dosed 126 weeks, study length 126 weeks): negative (inactive)
- carcinogen call (rat, strain Charles River CD (Sprague-Dawley), females, by gavage, site: gastric mucosa, lesion: carcinoid tumor, malignant, dosed 105 weeks, study length 105 weeks): negative (inactive)
- carcinogen call (rat, strain Charles River CD (Sprague-Dawley), males, by gavage, site: gastric mucosa, lesion: carcinoid tumor, malignant, dosed 105 weeks, study length 105 weeks): negative (inactive)

SMILES: Nc1nc(=S)c2ncn([C@H]3C[C@H](O)[C@@H](CO)O3)c2[nH]1
- TD50 (mouse, strain B6C3F1, females, i.p., site: any site (literature study), lesion: several types, types named in the paper, dosed 43 weeks, study length 77 weeks): 4.48 mg/kg/day
- TD50 (mouse, strain B6C3F1, females, i.p., site: lung, lesion: alveolar/bronchiolar adenoma + alveolar/bronchiolar carcinoma, dosed 43 weeks, study length 77 weeks): 6.87 mg/kg/day
- TD50 (rat, strain Sprague-Dawley, females, i.p., site: any site (literature study), lesion: several types, types named in the paper, dosed 52 weeks, study length 78 weeks): 4.11 mg/kg/day
- TD50 (rat, strain Sprague-Dawley, females, i.p., site: ear canal, lesion: carcinoma, NOS + squamous-cell carcinoma, dosed 52 weeks, study length 78 weeks): 2.1 mg/kg/day
- TD50 (rat, strain Sprague-Dawley, females, i.p., site: ear canal, lesion: squamous-cell carcinoma, dosed 52 weeks, study length 78 weeks): 2.31 mg/kg/day
- TD50 (rat, strain Sprague-Dawley, males, i.p., site: all sites, lesion: lymphoma, dosed 52 weeks, study length 78 weeks): 5.75 mg/kg/day
- TD50 (rat, strain Sprague-Dawley, males, i.p., site: ear canal, lesion: carcinoma, NOS + squamous-cell carcinoma, dosed 52 weeks, study length 78 weeks): 4.38 mg/kg/day

Source: PubChem BioAssay AID1745844 (Carcinogenic Potency Database (CPDB), 2022)
